Here are results for five compounds from ChEMBL document CHEMBL1201862, “PubChem BioAssay data set” (2004).

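Test compounds were applied to cells in 96-well plates for 48 hours at 5 doses. Abbreviation: GI50, concentration required for 50% inhibition of growth.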 Active and inactive are the calls of the source. Rule as the data show it: active = GI50 up to about 1.1 µM and inactive = higher.

Test systems include HOP-62; SW-620; DU-145; UO-31; CCRF-CEM; HCT-15; PC-3; SNB-75; MCF7; OVCAR-8; ACHN; NCI-H23; K562; SK-OV-3; COLO 205; NCI/ADR-RES; SNB-19; NCI-H460; HCC 2998.
Common to all, as to assay: growth of human tumour cells (NCI), 48 h

In the case of `COc1cc2oc(=O)cc(C)c2c(OC)c1OC`, the GI50 in the experiment on HOP-62 is > 100 µM (inactive); in the experiment with SW-620, > 100 µM (inactive); in the experiment on DU-145, > 100 µM (inactive); in the experiment on UO-31, 38.7 µM (inactive); with CCRF-CEM, > 100 µM (inactive); in the experiment with HCT-15, > 100 µM. Moreover, the GI50 was > 100 µM (inactive) in the experiment with PC-3; 67.6 µM (inactive) in the experiment with SNB-75; > 100 µM (inactive) with MCF7; > 100 µM (inactive) in the experiment on OVCAR-8; > 100 µM (inactive) with ACHN; > 100 µM (inactive) with NCI-H23. Also, the GI50 with K562, with SK-OV-3, in the experiment with COLO 205, in the experiment on NCI/ADR-RES and with SNB-19 was > 100 µM (inactive) in each case.

For the compound `CC(=O)Oc1ccc(N2C(=O)C3c4[nH]c5ccccc5c4C4CCC(C(C)(C)C)CC4C3C2=O)cc1` (stereo unspecified), the GI50 is 3.79 µM (inactive) in the experiment on HOP-62; 2.51 µM (inactive) in the experiment with SW-620; 2.55 µM (inactive) with NCI-H460; 3.7 µM (inactive) in the experiment on DU-145; 5.35 µM (inactive) in the experiment with UO-31; 10 µM (inactive) in the experiment on CCRF-CEM. Moreover, the GI50 with HCT-15 was 4.07 µM; in the experiment with PC-3, 2.79 µM (inactive); with MCF7, 2.88 µM (inactive); in the experiment with OVCAR-8, 3.84 µM (inactive); in the experiment with ACHN, 3.55 µM (inactive); in the experiment on NCI-H23 it was 3.56 µM (inactive). In addition, the GI50 is 3.26 µM (inactive) with K562; 10.8 µM (inactive) in the experiment on SK-OV-3; 4.71 µM (inactive) in the experiment on COLO 205; 2.68 µM (inactive) with HCC 2998; 3.56 µM (inactive) in the experiment on NCI/ADR-RES; 3.08 µM (inactive) in the experiment on SNB-19.

Turning to `O=C(Cc1nc2ccccc2o1)C(=O)Nc1cccc(Cl)c1`, the GI50 is > 100 µM (inactive) in the experiment with HOP-62; > 100 µM (inactive) in the experiment on SW-620; > 100 µM (inactive) with NCI-H460; > 100 µM (inactive) with UO-31; > 100 µM (inactive) in the experiment on CCRF-CEM; > 100 µM with HCT-15. The GI50 in the experiment on SNB-75, in the experiment with OVCAR-8, in the experiment with ACHN, in the experiment on NCI-H23, in the experiment with K562 and with SK-OV-3 was > 100 µM (inactive) each time. Besides, the GI50 in the experiment with COLO 205, in the experiment on HCC 2998 and in the experiment with SNB-19 was > 100 µM (inactive) each time.

Turning to `CC(C)CC(=O)CC(C)[C@]1(CCCOCc2ccccc2)C(=O)N2CCC3(C[C@@]24CCC[C@H]41)OCCO3` (stereo partly specified), the GI50 with HOP-62 is > 10 µM (inactive); in the experiment on SW-620, > 10 µM (inactive); in the experiment on NCI-H460, > 10 µM (inactive); in the experiment with UO-31, > 10 µM (inactive); in the experiment with CCRF-CEM it was > 10 µM (inactive); in the experiment on HCT-15, > 10 µM. The GI50 in the experiment on PC-3, in the experiment with MCF7, with OVCAR-8, with NCI-H23, with K562 and with SK-OV-3 was > 10 µM (inactive) each time. Besides, the GI50 in the experiment on COLO 205, in the experiment on HCC 2998, with NCI/ADR-RES and in the experiment on SNB-19 was > 10 µM (inactive) throughout.

For `N#Cc1nc(C2=C(Cl)c3ccccc3OC2)[nH]c1C#N`, the GI50 is 24.7 µM (inactive) in the experiment with SW-620; 22 µM (inactive) in the experiment with NCI-H460; 24 µM (inactive) in the experiment with UO-31; 11.5 µM (inactive) in the experiment on CCRF-CEM; 34.8 µM in the experiment on HCT-15; 11 µM (inactive) with PC-3. The GI50 was 22.8 µM (inactive) in the experiment with MCF7; 30.4 µM (inactive) with OVCAR-8; 32.5 µM (inactive) in the experiment with ACHN; 25.1 µM (inactive) with NCI-H23; 22.2 µM (inactive) in the experiment on K562; 36.7 µM (inactive) in the experiment on SK-OV-3. The GI50 with HCC 2998 was 16.3 µM (inactive); in the experiment with NCI/ADR-RES it was 41.1 µM (inactive); with SNB-19, 29.8 µM (inactive).
